Assay results from patent publication US9150566B2, “2-(1,2,3-triazol-2-yl)benzamide and 3-(1,2,3-triazol-2-YL)picolinamide derivatives as orexin receptor antagonists” (ACTELION PHARMACEUTICALS LTD., priority 2011, dated 2015).
Where two headings read alike, the source gives them in different places.

Columns and labels:
humans = conditions: cited from earlier work
rat [1] = conditions: cited from earlier work
rats [2] = conditions: cited from earlier work
rat [3] = conditions: rat fear-potentiated startle paradigm; cited from earlier work
rats [4] = conditions: rats treated with the compound; cited from earlier work
[5] = test system: amyloid precursor protein transgenic mice; conditions: after acute sleep restriction, APP transgenic mice; cited from earlier work
mouse = mouse model of depression, administered chronically; cited from earlier work
fasted hungry rats = fasted hungry rats exposed to food odors; cited from earlier work
rat [6] = conditions: rat model; cited from earlier work
human orexin-1 receptor = human orexin-1 receptor (Homo sapiens (Human), UniProt O43613); experiment: In vitro intracellular calcium measurements (FLIPR), antagonistic activity on orexin-1 receptor; type: cell-based; conditions: read-out: IC50 OX1
Summary of the method: (§1)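 CHO cells expressing human orexin-1 or orexin-2 receptor were seeded overnight, preincubated with antagonist for 120 min, then stimulated with agonist in a FLIPR Tetra.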

human orexin-2 receptor = human orexin-2 receptor (Homo sapiens (Human), UniProt O43614); experiment: In vitro intracellular calcium measurements (FLIPR), antagonistic activity on orexin-2 receptor; type: cell-based; conditions: read-out: IC50 OX2
Summary of the method: as §1

[7] = Measurement of brain and systemic concentration after oral administration; type: in vivo; conditions: rat, brain, male wistar rats, oral 100 mg/kg, read-out: brain concentration [B]; for concentration at 1 h: formulated in 10% PEG400/90% MC0.5%, sampled at 1 h
Protocol: Measurement of Brain and Systemic Concentration after Oral Administration:
In order to assess brain penetration, the concentration of the compound is measured in plasma ([P]), and brain ([B]), sampled 1 h or 3 h (or at different time points) following oral administration (100 mg/kg) to male wistar rats (n=3). The compounds are formulated either in 100% PEG 400 or 10% PEG400/90% MC0.5%. Samples are collected in the same animal at the same time point (+/−5 min). Blood is sampled from the vena cava caudalis into containers with EDTA as anticoagulant and centrifuged to yield plasma. Brain is sampled after cardiac perfusion of 10 mL NaCl 0.9% and homogenized into one volume of cold phosphate buffer (pH 7.4). All samples are extracted with MeOH and analyzed by LC-MS/MS. Concentrations are determined with the help of calibration curves. Inter-individual variations between the three rats were limited. Particular compounds of the present invention tested as described above gave brain concentrations ([B]) as shown in Table 16 below; wherein the compounds of Examples 11-37 and 94 were formulated in 100% PEG400 and sampled at 3 h. All other examples below were formulated in 10% PEG400/90% MC0.5% and sampled at 1 h.

CYP3A4 = CYP3A4 (Homo sapiens (Human), UniProt P08684); experiment: CYP3A4 inhibition assay (human liver microsomes, testosterone 6β-hydroxylation); conditions: read-out: CYP3A4 IC50, 40 μM testosterone
rodents = conditions: cited from earlier work
[8] = CHO cells expressing human orexin-1 receptor, FLIPR, 3 nM orexin-A agonist, 120 min antagonist incubation, geometric mean if determined several times
[9] = CHO cells expressing human orexin-2 receptor, FLIPR, 3 nM orexin-A agonist, 120 min antagonist incubation, geometric mean if determined several times

human orexin-2 receptor, sequence (O43614 whole entry): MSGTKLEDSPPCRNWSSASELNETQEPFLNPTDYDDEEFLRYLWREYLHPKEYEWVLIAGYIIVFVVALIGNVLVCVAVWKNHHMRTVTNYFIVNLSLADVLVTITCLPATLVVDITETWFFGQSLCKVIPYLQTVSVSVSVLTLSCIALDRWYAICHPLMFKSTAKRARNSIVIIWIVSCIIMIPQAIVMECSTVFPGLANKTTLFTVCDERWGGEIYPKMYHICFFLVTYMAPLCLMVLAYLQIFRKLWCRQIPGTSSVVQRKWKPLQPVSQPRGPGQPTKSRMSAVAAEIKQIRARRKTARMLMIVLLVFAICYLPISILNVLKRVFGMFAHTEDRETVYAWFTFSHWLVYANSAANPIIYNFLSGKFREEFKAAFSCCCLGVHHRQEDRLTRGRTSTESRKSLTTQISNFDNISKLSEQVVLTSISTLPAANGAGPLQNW
human orexin-1 receptor, sequence (O43613 whole entry): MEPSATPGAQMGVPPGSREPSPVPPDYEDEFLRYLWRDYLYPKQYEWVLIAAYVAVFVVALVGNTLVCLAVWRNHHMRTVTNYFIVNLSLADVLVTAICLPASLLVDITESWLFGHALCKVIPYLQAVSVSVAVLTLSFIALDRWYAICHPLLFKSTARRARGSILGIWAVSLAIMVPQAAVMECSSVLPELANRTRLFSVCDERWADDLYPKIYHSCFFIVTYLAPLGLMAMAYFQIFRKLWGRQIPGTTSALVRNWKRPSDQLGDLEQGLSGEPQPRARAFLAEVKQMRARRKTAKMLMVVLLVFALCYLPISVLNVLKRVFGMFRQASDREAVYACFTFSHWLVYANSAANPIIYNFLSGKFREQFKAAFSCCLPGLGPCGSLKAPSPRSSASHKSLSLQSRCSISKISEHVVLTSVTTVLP
CYP3A4, sequence (P08684 whole entry): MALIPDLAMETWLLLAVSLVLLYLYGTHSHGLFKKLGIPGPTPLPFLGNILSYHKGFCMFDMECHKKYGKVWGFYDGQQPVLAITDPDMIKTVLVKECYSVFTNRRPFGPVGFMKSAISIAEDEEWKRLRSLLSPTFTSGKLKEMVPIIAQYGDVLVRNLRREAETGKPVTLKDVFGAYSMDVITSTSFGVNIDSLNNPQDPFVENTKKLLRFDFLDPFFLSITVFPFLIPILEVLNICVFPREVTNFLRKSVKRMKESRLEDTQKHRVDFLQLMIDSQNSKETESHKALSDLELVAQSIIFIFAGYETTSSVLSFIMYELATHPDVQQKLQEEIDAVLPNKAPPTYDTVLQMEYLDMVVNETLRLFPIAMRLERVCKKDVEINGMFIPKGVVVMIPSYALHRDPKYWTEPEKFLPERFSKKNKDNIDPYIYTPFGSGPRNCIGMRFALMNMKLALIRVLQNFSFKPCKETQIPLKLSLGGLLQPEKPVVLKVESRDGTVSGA

IC50 (human orexin-1 receptor; [8]) | IC50 (human orexin-2 receptor; [9]) | concentration at 1 h [7] | IC50 (CYP3A4) | Structure (SMILES) | other results
 |  |  |  | CNC(=O)[C@@H](c1ccccc1)N1CCc2cc(OC)c(OC)cc2[C@@H]1CCc1ccc(C(F)(F)F)cc1 [(2R)-2-{(1S)-6,7-dimethoxy-1-[2-(4-trifluoromethyl-phenyl)-ethyl]-3,4-dihydro-1H-isoquinolin-2-yl}-N-methyl-2-phenyl-acetamide] | clinical efficacy, primary insomnia (humans): showed clinical efficacy; alertness (active wake and locomotion) (rat [1]): decrease alertness; time spent in REM and NREM sleep (rat [1]): dose-dependently increase the time spent in both REM and NREM sleep; cardiovascular responses to conditioned fear and novelty exposure (rats [2]): attenuated cardiovascular responses to conditioned fear and novelty exposure; activity in animal model of conditioned fear (rat [3]): active; learning and memory (rats [4]): intact declarative and non-declarative learning and memory; brain levels of amyloid-beta and plaque deposition [5]: decreased brain levels of amyloid-beta (Aβ) as well as AO plaque deposition; antidepressant-like activity (mouse): induce antidepressant-like activity; natural activation induced by orexin A (fasted hungry rats): attenuate the natural activation induced by orexin A; pharmacological activity, nicotine self-administration (rat [6]): displayed pharmacological activity
1 nM | 96 nM | 1610 ng/g | 16000 nM | O=C(c1ccc(Cl)cc1-n1nccn1)N1CCOC[C@H]1Cc1cccc(-n2nccn2)c1 [Example 77, (4-Chloro-2-[1,2,3]triazol-2-yl-phenyl)-[(R)-3-(3-[1,2,3]triazol-2-yl-benzyl)-morpholin-4-yl]-methanone] | 
6 nM | 3580 nM |  | 30000 nM | Cc1ccc(C(=O)N2CCOC[C@H]2Cc2cc(-n3nccn3)ccc2F)c(-n2nccn2)c1C [Example 94, (3,4-Dimethyl-2-[1,2,3]triazol-2-yl-phenyl)-[(R)-3-(2-fluoro-5-[1,2,3]triazol-2-yl-benzyl)-morpholin-4-yl]-methanone] | concentration at 3 h ([7]; formulated in 100% PEG400, sampled at 3 h): 654 ng/g
6 nM | 289 nM | 529 ng/g | 13000 nM | C[C@@H]1CN(C(=O)c2ccccc2-n2nccn2)[C@H](Cc2cccc(-n3nccn3)c2)CO1 [Example 100, [(2R,5R)-2-Methyl-5-(3-[1,2,3]triazol-2-yl-benzyl)-morpholin-4-yl]-(2-[1,2,3]triazol-2-yl-phenyl)-methanone] | 
21 nM | 899 nM | 5930 ng/g | 21000 nM | C[C@@H]1CN(C(=O)c2ccccc2-n2nccn2)[C@H](Cc2cc(-n3nccn3)ccc2F)CO1 [Example 116, [(2R,5R)-5-(2-Fluoro-5-[1,2,3]triazol-2-yl-benzyl)-2-methyl-morpholin-4-yl]-(2-[1,2,3]triazol-2-yl-phenyl)-methanone] | 
3 nM | 191 nM | 5830 ng/g | 20000 nM | O=C(c1ccc(Cl)cc1-n1nccn1)N1CCOC[C@H]1Cc1cc(-n2nccn2)ccc1F [Example 130, (4-Chloro-2-[1,2,3]triazol-2-yl-phenyl)-[(R)-3-(2-fluoro-5-[1,2,3]triazol-2-yl-benzyl)-morpholin-4-yl]-methanone] | 
 |  |  |  | Cn1c(SCC(=O)N2CCC[C@H]2C(=O)Nc2ccccc2-c2ccccc2)nc2ccccc21 [N-biphenyl-2-yl-1-{[(1-methyl-1H-benzimidazol-2-yl)sulfanyl]acetyl}-L-prolinamide] | behavioral and molecular changes induced by repeated amphetamine administration (rodents): reduced behavioral (locomotor sensitization) and molecular (transcriptional responses) changes induced by repeated amphetamine administration; nicotine-reinstatement for a conditioned reinforcer (rodents): inhibited nicotine-reinstatement for a conditioned reinforcer

Structure (SMILES) | IC50 (human orexin-1 receptor; [8]) | IC50 (human orexin-2 receptor; [9]) | concentration at 1 h [7] | IC50 (CYP3A4) | other results
Cc1ccc(C(=O)N2CCOC[C@H]2Cc2cccc(-n3nccn3)c2)c(-n2nccn2)c1C [Example 92, (3,4-Dimethyl-2-[1,2,3]triazol-2-yl-phenyl)-[(R)-3-(3-[1,2,3]triazol-2-yl-benzyl)-morpholin-4-yl]-methanone] |  |  | 1970 ng/g | 44000 nM | IC50 (human orexin-1 receptor): 3 nM; IC50 (human orexin-2 receptor): 2630 nM
Cc1ccc(C(=O)N2CCOC[C@H]2Cc2cc(-n3nccn3)ccc2Cl)c(-n2nccn2)c1 [Example 120, [(R)-3-(2-Chloro-5-[1,2,3]triazol-2-yl-benzyl)-morpholin-4-yl]-(4-methyl-2-[1,2,3]triazol-2-yl-phenyl)-methanone] |  |  | 5130 ng/g | 19000 nM | IC50 (human orexin-1 receptor): 3 nM; IC50 (human orexin-2 receptor): 531 nM
